Results taken from the supplement of paper PMC11208160.

assay: recombinant UMI read abundance after kanamycin selection (control-corrected) (log10(CPM+1)); higher = more efficient recombination; extreme values may be limits of the assay; sequences stand for … in AGTGCAGAGAAAATCGGCCAGTTTTCTCTGCCTGCAGTCCGCATGCCGTGGGACCCCTTGGGTTCTAACCTGTTGCCTAGATTTATGCAGCGGACTGCCTTTCTCCCAAAGTGATAAACCGG…AGGTTGGTTTCACT; site = the 11-nt donor
Summary of the method: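 Values are reported as log10(CPM+1), obtained by converting sequencing counts to CPM, averaging replicates and scaling by control-derived factors. The counts came from recombinant UMIs amplified by PCR across the donor–target junction. These UMIs came from a pooled Escherichia coli screen of donor and donor-binding-loop pairs for the IS621 bridge recombinase, plated with IPTG (0.07 mM) plus kanamycin or left unselected, in two replicates each.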
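Further: IS621 bridge recombinase in Escherichia coli cells against a fixed T5 target plasmid.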

| Sequence | recombinant UMI read abundance (log10) |
| --- | --- |
| TTTGCGGCATGGACCGGTTTTCCCGGTAATCCGTATTTGCT (site TATGCGGCTAG) | 0.00481 |
| GAGCTCACATGGACCGGTTTTCCCGGTAATCCGTATTTGAT (site GAGTTCACTAT) | 0.209 |
| AAGCACGCATGGACCGGTTTTCCCGGTAATCCGTATTTGCG (site AAGCACGCTCA) | 0.289 |
| ACACTCCCATGGACCGGTTTTCCCGGTAATCCGTATTTGCG (site CTGACGACTAC) | 0.0266 |
| CGAGCATCATGGACCGGTTTTCCCGGTAATCCGTATTTGTT (site CGATCATCTAG) | 0 |
| CTTTACGCATGGACCGGTTTTCCCGGTAATCCGTATTTGTA (site CTTTACGCTTA) | 0.0146 |
| GTTGTTCCATGGACCGGTTTTCCCGGTAATCCGTATTTGGT (site GTTGTTCCTGC) | 0.388 |
| ATCCAAGCATGGACCGGTTTTCCCGGTAATCCGTATTTGAG (site ATCCAAGCTTT) | 0.757 |
| ACCCATCCATGGACCGGTTTTCCCGGTAATCCGTATTTGAC (site ACCCATCCTGT) | 0.806 |
| AAGCATACATGGACCGGTTTTCCCGGTAATCCGTATTTGAC (site AAGCATACTGT) | 2.88 |
| CGGGGAACATGGACCGGTTTTCCCGGTAATCCGTATTTGTT (site CGCGGAACTAA) | 0.00411 |
| ATGGAGGCATGGACCGGTTTTCCCGGTAATCCGTATTTGGC (site ATGAAGGCTGC) | 2.07 |
| CGAGGATCATGGACCGGTTTTCCCGGTAATCCGTATTTGAC (site CTAGTATCTGT) | 0 |
| CCAGTATCATGGACCGGTTTTCCCGGTAATCCGTATTTGCA (site CCAGTATCTTG) | 2.21 |
| CTAGTATCATGGACCGGTTTTCCCGGTAATCCGTATTTGAC (site CTAGCATCTTT) | 0.0133 |
| TAGAATACATGGACCGGTTTTCCCGGTAATCCGTATTTGCG (site TAGAATACTAG) | 0 |
| TTTGCGGCATGGACCGGTTTTCCCGGTAATCCGTATTTGCT (site TTTGCGACTAG) | 0 |
| ATACATGCATGGACCGGTTTTCCCGGTAATCCGTATTTGCT (site ATACATGCTAG) | 2.75 |
| GTCAACACATGGACCGGTTTTCCCGGTAATCCGTATTTGTC (site GTCAACACTGA) | 2.35 |
| CACGGCCCATGGACCGGTTTTCCCGGTAATCCGTATTTGTT (site CACGGCACTAA) | 0.0172 |
| GTGGCGGCATGGACCGGTTTTCCCGGTAATCCGTATTTGTG (site GTGGTGGCTCA) | 0.00615 |
| CGGACCCCATGGACCGGTTTTCCCGGTAATCCGTATTTGTT (site CGGACCCCTAA) | 1.02 |
| TCAGAGACATGGACCGGTTTTCCCGGTAATCCGTATTTGCG (site TGAGAGACTCG) | 0.498 |
| ACGCACGCATGGACCGGTTTTCCCGGTAATCCGTATTTGGG (site AGGCACGCTCC) | 0.00698 |
| TATTCTGCATGGACCGGTTTTCCCGGTAATCCGTATTTGGA (site TATTCTGCTTC) | 0.603 |

| Sequence | recombinant UMI read abundance (log10) |
| --- | --- |
| AGCCTAGCATGGACCGGTTTTCCCGGTAATCCGTATTTGGT (site AGCCTAGCTAG) | 0.00404 |
| GCACATGCATGGACCGGTTTTCCCGGTAATCCGTATTTGGA (site GCACATGCTTC) | 1.05 |
| TAACGGTCATGGACCGGTTTTCCCGGTAATCCGTATTTGGC (site TAACGGTCTGC) | 2.67 |
| CTTGTCTCATGGACCGGTTTTCCCGGTAATCCGTATTTGTA (site CTTGTCTCTTA) | 2.82 |
| CTTTAGACATGGACCGGTTTTCCCGGTAATCCGTATTTGAG (site CATTAGACTCT) | 0.351 |
| GTGTAGGCATGGACCGGTTTTCCCGGTAATCCGTATTTGGC (site CTGTAGGCTGC) | 1.99 |
| TCAGAGACATGGACCGGTTTTCCCGGTAATCCGTATTTGCG (site TCAGAGACTCT) | 0.0281 |
| ATATTCGCATGGACCGGTTTTCCCGGTAATCCGTATTTGCT (site ATATTCGCTAG) | 2.58 |
| CTGTAGGCATGGACCGGTTTTCCCGGTAATCCGTATTTGGC (site CTGTAGGCTGC) | 2.01 |
| GGTCCTACATGGACCGGTTTTCCCGGTAATCCGTATTTGTA (site GGTCCGACTTA) | 0.0128 |
| TACTTGACATGGACCGGTTTTCCCGGTAATCCGTATTTGCT (site TACTAGACTAG) | 0.43 |
| ACAGATCCATGGACCGGTTTTCCCGGTAATCCGTATTTGAC (site ACAGATCCTGT) | 0.651 |
| CACAGCGCATGGACCGGTTTTCCCGGTAATCCGTATTTGTT (site CACAGCGCTAA) | 1.99 |
| CATCACACATGGACCGGTTTTCCCGGTAATCCGTATTTGGT (site CATCACACTAC) | 1.24 |
| GCGTCACCATGGACCGGTTTTCCCGGTAATCCGTATTTGTT (site GCGTCACCTAA) | 0.0187 |
| CTTCTCTCATGGACCGGTTTTCCCGGTAATCCGTATTTGTC (site CTTCTCTCTTA) | 0.836 |
| CTCTACACATGGACCGGTTTTCCCGGTAATCCGTATTTGCA (site CTCTACACTAG) | 1.37 |
| AGCTCAGCATGGACCGGTTTTCCCGGTAATCCGTATTTGGG (site TGCTCAGCTCC) | 0.366 |
| CTCCTCTCATGGACCGGTTTTCCCGGTAATCCGTATTTGTA (site CTTCTCTCTTA) | 0 |
| ATAAGGCCATGGACCGGTTTTCCCGGTAATCCGTATTTGTC (site ATAAGGCCTGA) | 1.94 |
| TAGCCATCATGGACCGGTTTTCCCGGTAATCCGTATTTGGT (site TAGCCCTCTAC) | 0.0197 |
| TAGCTCACATGGACCGGTTTTCCCGGTAATCCGTATTTGGC (site TAGCTCACTGC) | 1.5 |
| CGGAATCCATGGACCGGTTTTCCCGGTAATCCGTATTTGTA (site CGGAATCCTCA) | 0.781 |
| TTAGATGCATGGACCGGTTTTCCCGGTAATCCGTATTTGCC (site TTAGATGCTGG) | 1.9 |
| GCGTTTACATGGACCGGTTTTCCCGGTAATCCGTATTTGCT (site TCGTTTACTAG) | 0.474 |

| Sequence | recombinant UMI read abundance (log10) |
| --- | --- |
| AATCTCACATGGACCGGTTTTCCCGGTAATCCGTATTTGCT (site AATCTCACTAG) | 1.64 |
| GTGAGAACATGGACCGGTTTTCCCGGTAATCCGTATTTGGC (site GTCAGAACTGC) | 0 |
| TTTGCGGCATGGACCGGTTTTCCCGGTAATCCGTATTTGCT (site TTTGCCGCTAG) | 0.00324 |
| GTGTAGGCATGGACCGGTTTTCCCGGTAATCCGTATTTGGC (site GTGTAGGCTGC) | 2.67 |
| TCATGTCCATGGACCGGTTTTCCCGGTAATCCGTATTTGTG (site TCATGTCCTCA) | 0 |
| TAGCATACATGGACCGGTTTTCCCGGTAATCCGTATTTGCA (site TAGTATACTTG) | 0.507 |
| AAGCACGCATGGACCGGTTTTCCCGGTAATCCGTATTTGGC (site AAGCACGCTGC) | 2.71 |
| CGCCGTACATGGACCGGTTTTCCCGGTAATCCGTATTTGCC (site CGCCGTACTAG) | 0.256 |
| CGATGGACATGGACCGGTTTTCCCGGTAATCCGTATTTGTT (site CGATGGACTAA) | 1.97 |
| GGACGGCCATGGACCGGTTTTCCCGGTAATCCGTATTTGCG (site GGACGGCCTCG) | 0.137 |
| CCTAAAGCATGGACCGGTTTTCCCGGTAATCCGTATTTGAT (site CCCAAAGCTAT) | 0.0148 |
| CGGGTTCCATGGACCGGTTTTCCCGGTAATCCGTATTTGTT (site CGGAATCCTAA) | 0.00595 |
| CGACCATCATGGACCGGTTTTCCCGGTAATCCGTATTTGGC (site CGACCATCTGC) | 3.07 |
| AACCGACCATGGACCGGTTTTCCCGGTAATCCGTATTTGAT (site AACCGGCCTAT) | 0.0183 |
| ATCTATACATGGACCGGTTTTCCCGGTAATCCGTATTTGAC (site ATCTACACTGT) | 0.552 |
| CTAGTATCATGGACCGGTTTTCCCGGTAATCCGTATTTGAC (site CTGGTAGCTGT) | 0 |
| ATCTCAGCATGGACCGGTTTTCCCGGTAATCCGTATTTGGG (site AACTCAGCTCC) | 0.0145 |
| CGTAAAGCATGGACCGGTTTTCCCGGTAATCCGTATTTGAT (site CCTAAAGCTAT) | 0 |
| CAATCAGCATGGACCGGTTTTCCCGGTAATCCGTATTTGCT (site CAATCAGCTAG) | 0.199 |
| AGCTCAGCATGGACCGGTTTTCCCGGTAATCCGTATTTGGG (site AGCTGAGCTCC) | 0 |
| AGGGCTACATGGACCGGTTTTCCCGGTAATCCGTATTTGAC (site AGGCCTACTGT) | 0 |
| GATTATCCATGGACCGGTTTTCCCGGTAATCCGTATTTGCC (site GATTATCCTAG) | 0 |
| AGTTGTACATGGACCGGTTTTCCCGGTAATCCGTATTTGGT (site AGTTGTACTAC) | 0.56 |
| TCATGAGCATGGACCGGTTTTCCCGGTAATCCGTATTTGGG (site TCATGAGCTCC) | 0.0121 |
| TTAGCTGCATGGACCGGTTTTCCCGGTAATCCGTATTTGTG (site TTAGCCGCTCA) | 0 |
